Test results as given in US20090253634A1, “Methods and Compositions for the Treatment of Gastrointestinal Disorders” (MICROBIA, INC., priority 2005, published 2009).
Like-named read-outs stand apart in the source and are kept apart here. Bridge positions count the residues as written; N and C are the ends. Peptide text beside a SMILES is read from it.

Columns and labels:
[1] = target: T1, GC-C receptors on the cell surface of human colonic cells (T84 cells) (Homo sapiens, UniProt P25092); experiment: competitive radioligand-binding assay on T84 cells
T1 construct: 2.5×10^5 T84 cells (0.25 mg protein); host or cells: T84 human colonic cells
Protocol: The radiolabeled tracer used in these experiments was ^125I-SEQ ID NO:7. To determine binding constants, competitive inhibition of binding was used. T84 cells were cultured in T-150 plastic flasks in DMEM and Ham's F-12 medium containing 5% fetal bovine serum. Monolayers at 60-70% confluency (approximately 10^7 cells) were collected by gentle scraping followed by centrifugation, and washed twice in 50 mL of phosphate-buffered saline (PBS). The cells were resuspended in 1 mL DMEM containing 20 mM […] (Hepes), pH 7.0 and 0.5% bovine serum albumin (BSA). T84 cells were incubated with a constant amount of ^125I-SEQ ID NO:7 containing various concentrations of cold competitor. Free ^125I-SEQ ID NO:7 was separated from bound tracer by rapid suction filtration. The binding reactions were carried out in 1.5 mL microfuge tubes in 0.24 mL of DMEM/20 mM Hepes pH 7.0/0.5% BSA containing: 2.5×10^5 T84 cells (0.25 mg protein), 200,000 cpm ^125I-SEQ ID NO:7 (41 fmol, 170 pM), and 0.01 to 1,000 nM competitor. Binding assays at pH 5.0 were done in DMEM/20 mM 2-(N-morpholino) ethanesulfonic acid (Mes), pH 5.0. Binding assays in pH 8.0 were done in DMEM/20 mM Hepes/50 mM sodium bicarbonate pH 8.0. One sample contained no competitor (B0) and another contained no cells. After incubation at 37° C. for 1 h, the reaction mixtures were applied to Whatman GF/B glass-fiber filters by suction filtration. The filters were then rinsed with 10 mL ice-cold PBS buffer, inserted into plastic tubes, and added to 2 mL scintillation fluid. Radioactivity was measured in a LS 6500 liquid scintillation counter (Beckman-Coulter). The percent bound in each sample is calculated by the equation:
% B/B0=(sample cpm−no cells cpm)×100/(B0cpm−no cells cpm)
Competitive radioligand-binding curves were generated using the Graphpad PRISM™ computer program. […]

[2] = system: carboxypeptidase A; experiment: in vitro proteolytic stability: carboxypeptidase A
Protocol: The stability of SEQ ID NO:3 in the presence of several mammalian digestive enzymes was determined. SEQ ID NO:3 was exposed to a variety of in vitro conditions including digestive enzymes and low ph environments designed to simulate gastric fluid. SEQ ID NO:3 was incubated with chymotrypsin, trypsin, pepsin, aminopeptidase, carboxypeptidase A, and simulated gastric fluid (sgf) at ph 1.0. Samples were collected at 0, 3, and 24 h for all conditions except pepsin digestion and the SGF. For the latter two conditions, samples were obtained at 0, 1, and 3 h. Negative control samples were prepared for initial and final time points. A separate, positive activity control was run in parallel to SEQ ID NO:3. All samples were analyzed by LC/MS
Five (5) μL of a 40 μg/mL carboxypeptidase inhibitor (carboxypeptidase inhibitor from potato tuber (Sigma-Aldrich, C0279) stock was added to each control sample (0 and 24 h), for a final concentration of 0.4 μg/mL. All control and test (0, 3 and 24 h) samples were incubated at 37° C. for 5 min. Twenty (20) μL of a 0.01 mg/mL carboxypeptidase A (Carboxypeptidase A from human pancreas; Sigma-Aldrich, C5358) stock was added to each sample. The samples were returned to the 37° C. water bath. The reaction was quenched with 5 μL of a 40 μg/mL carboxypeptidase inhibitor at the proper time point. No extra carboxypeptidase inhibitor was added to the control samples since there was already inhibitor present. Samples were subsequently flash frozen in liquid nitrogen, and stored at −80° C. until analysis. Upon analysis, samples were thawed and transferred to a 1 mL 96-well deep microtiter plate. […] These standards were used to generate a standard curve for quantification of samples. When necessary, the standard curves were also used to calculate the concentration of the corresponding digestion product. Ten (10) μL injections were made of each sample and standard. […] For the SEQ.
To further study the SEQ ID NO:3 carboxypeptidase A digestion product, samples of 0.01 mg/mL SEQ ID NO:3 were prepared in the carboxypeptidase A reaction buffer at a total volume of 500 μL in 2 mL eppendorf tubes. Triplicate samples were prepared for the following time points: 0, 15, 30, 60, 120, 180 and 240 min. The samples were incubated at 37° C. for 5 min. Twenty (20) μL of a 0.01 mg/mL carboxypeptidase A stock were added to each sample and returned to the 37° C. water bath. The reactions were quenched with 5 μL of a 40 μg/mL carboxypeptidase inhibitor at the proper time points. Samples were subsequently flash frozen in liquid nitrogen, and stored at −80° C. until analysis. Upon analysis, samples were thawed and transferred to a 1 mL 96-well plate. Standards of SEQ ID NO:3 were prepared in carboxypeptidase A reaction buffer at 0.625, 1.25, 2.50, 5.00, and 10.00 μg/mL concentrations. These standards were used to generate a standard curve for quantification of samples. When necessary, the standard curves were also used to calculate the concentration of the corresponding digestion product. Ten (10) μL injections were made of each sample and standard. If the formation of a digestion product was evident, then a spectral analysis was used to determine the mass of the digestion product, and predict its possible identity.

T1 sequence (P25092 24-1073): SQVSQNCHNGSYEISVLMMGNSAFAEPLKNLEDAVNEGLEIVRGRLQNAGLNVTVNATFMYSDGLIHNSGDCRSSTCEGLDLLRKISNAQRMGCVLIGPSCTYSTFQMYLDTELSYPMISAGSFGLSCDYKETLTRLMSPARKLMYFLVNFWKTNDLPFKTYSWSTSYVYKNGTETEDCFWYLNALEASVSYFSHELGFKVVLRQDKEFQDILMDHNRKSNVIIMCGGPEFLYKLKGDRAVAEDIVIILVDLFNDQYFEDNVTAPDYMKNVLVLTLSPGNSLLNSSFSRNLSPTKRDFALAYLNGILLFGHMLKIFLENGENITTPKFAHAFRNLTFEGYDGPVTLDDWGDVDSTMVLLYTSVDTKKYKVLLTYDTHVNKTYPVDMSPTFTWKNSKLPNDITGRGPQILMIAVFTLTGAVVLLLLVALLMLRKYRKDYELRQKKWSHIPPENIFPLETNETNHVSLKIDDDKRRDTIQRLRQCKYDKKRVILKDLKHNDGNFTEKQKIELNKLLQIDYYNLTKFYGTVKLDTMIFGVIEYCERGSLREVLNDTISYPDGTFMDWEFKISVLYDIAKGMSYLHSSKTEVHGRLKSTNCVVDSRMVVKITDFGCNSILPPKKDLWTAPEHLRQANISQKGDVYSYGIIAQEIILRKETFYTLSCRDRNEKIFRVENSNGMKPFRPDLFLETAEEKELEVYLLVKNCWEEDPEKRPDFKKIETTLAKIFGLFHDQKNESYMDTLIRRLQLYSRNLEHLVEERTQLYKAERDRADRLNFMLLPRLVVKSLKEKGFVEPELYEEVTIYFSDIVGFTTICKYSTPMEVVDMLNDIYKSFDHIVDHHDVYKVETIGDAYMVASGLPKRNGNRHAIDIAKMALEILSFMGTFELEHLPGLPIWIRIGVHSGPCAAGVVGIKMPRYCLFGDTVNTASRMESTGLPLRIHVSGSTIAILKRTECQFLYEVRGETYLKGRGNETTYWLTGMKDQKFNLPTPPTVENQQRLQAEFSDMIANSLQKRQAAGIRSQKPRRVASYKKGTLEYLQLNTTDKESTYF

Row | SMILES | effect of pH on binding to the high affinity site, Ki1 ([1]; pH 5, 7 and 8) | Cleavage of SEQ ID NO: 3 by proteolytic substance ([2]; Carboxypetidase A, 37° C., up to 24 h) | SEQ ID NO:3 average concentration ([2]; T0, carboxypeptidase A time course) | SEQ ID NO:3 average concentration ([2]; T240 (240 min)) | average calculated SEQ ID NO:3 product concentration ([2]; T24 h samples) | SEQ ID NO:3 calculated concentration ([2]; all samples (0, 3, 24 h and controls)) | calculated concentration of the SEQ ID NO:3 products ([2]; time 0 control (with inhibitor)) | calculated concentration of the SEQ ID NO:3 products ([2]; time 0 samples) | Ki [1] | Ki ([1]; read-out: Ki2 (low affinity site), pH 7.0, T84 cells, tracer 125I-SEQ ID NO:7) | average concentration of SEQ ID NO:6 (digestion product of SEQ ID NO:3) ([2]; T0)
1 | C[C@@H]1NC(=O)[C@@H]2CCCN2C(=O)[C@H](CC(N)=O)NC(=O)[C@@H]2CSSC[C@H](N)C(=O)N[C@H]3CSSC[C@H](NC1=O)C(=O)N[C@@H]([C@@H](C)O)C(=O)NCC(=O)N[C@H](C(=O)N[C@@H](Cc1ccc(O)cc1)C(=O)O)CSSC[C@H](NC(=O)[C@H](Cc1ccc(O)cc1)NC(=O)[C@H](CCC(=O)O)NC3=O)C(=O)N2 [SEQ ID NO:3] (H-CCEYCCNPACTGCY-OH; disulfide 1-6, 2-10, 5-13; N-terminus and C-terminus assumed) | not affected by pH | Yes | 5115 (+/−121) nM | 4438 (+/−188) nM | 1.3 (+/−0.04) μg/mL | 8.4 (+/−1.2) μg/mL | 0.8 (+/−0.02) μg/mL | 0.8 (+/−0.01) μg/mL |  |  | 
2 | C[C@@H]1NC(=O)[C@@H]2CCCN2C(=O)[C@H](CC(N)=O)NC(=O)[C@@H]2CSSC[C@H](N)C(=O)N[C@H]3CSSC[C@H](NC1=O)C(=O)N[C@@H]([C@@H](C)O)C(=O)NCC(=O)N[C@H](C(=O)O)CSSC[C@H](NC(=O)[C@H](Cc1ccc(O)cc1)NC(=O)[C@H](CCC(=O)O)NC3=O)C(=O)N2 [SEQ ID NO:6] (H-CCEYCCNPACTGC-OH; disulfide 1-6, 2-10, 5-13) |  |  |  |  |  |  |  |  | 1.57 nM | 446 nM | 108 (+/−2) nM
